Test results reported in US11466029B2, “Compounds useful to treat influenza virus infections” (Nanjing Zhengxiang Pharmaceuticals Co., Ltd., priority 2019, dated 2022).

The compounds below were run on Oseltamivir-resistant A/Weiss/43 (H1N1) (assay: microbe, parasite or virus in culture). Conditions: Influenza A virus, H1N1, MDCK, 120 h.
Format: cell-based

| SMILES | EC50 |
| --- | --- |
| CCC(CC)O[C@@H]1C=C(C(=O)O)C[C@H](N)[C@H]1NC(C)=O [Oseltamivir acid, reference compound] | > 100000 nM |
| O=C1c2c(O)c(=O)ccn2N([C@@H]2c3ccccc3SCc3c2ccc(F)c3F)[C@@H]2COCCN12 [Baloxavir acid, reference compound] | 1 nM |
| CP(C)(=O)c1cn2c(c(O)c1=O)C(=O)N1CCOC[C@H]1N2[C@@H]1c2ccccc2SCc2c1ccc(F)c2F [Compound E-1c, (R)-12-((S)-7,8-difluoro-6,11-dihydrodibenzo[b,e]thiepin-11-yl)-9-(dimethylphosphoryl)-7-hydroxy-3,4,12,12a-tetrahydro-1H-[1,4]oxazino[3,4-c]pyrido[2,1-f][1,2,4]triazine-6,8-dione] | 254 nM |
| CCP(=O)(CC)c1cn2c(c(O)c1=O)C(=O)N1CCOC[C@H]1N2[C@@H]1c2ccccc2SCc2c1ccc(F)c2F [Compound F-1, (R)-9-(Diethylphosphoryl)-12-((S)-7,8-Difluoro-6,11-Dihydrodibenzo[b,e]-Thiepin-11-yl)-7-Hydroxy-3,4,12,12a-Tetrahydro-1H-[1,4]Oxazino[3,4-c]Pyrido[2,1-f][1,2,4]Triazine-6,8-Dione] | 881 nM |
| O=C1c2c(O)c(=O)ccn2N([C@@H]2c3ccccc3[Se]Cc3c2ccc(F)c3F)[C@@H]2COCCN12 [Compound B-1, (R)-12-((S)-7,8-Difluoro-6,11-Dihydrodibenzo[b,e]Selenepin-11-yl)-7-Hydroxy-3,4,12,12a-Tetrahydro-1H-[1,4]Oxazino[3,4-c]Pyrido[2,1-f][1,2,4]Triazine-6,8-Dione] | 1.1 nM |
